Laboratory results as given in US20070155771A1, “Methods and means for treating protein conformational disorders” (priority 2003, published 2007).

Key:
[1] = system: COS-7 cells expressing an exon 1 fragment of the HD gene with 74 glutamines (Q74); assay: Aggregate formation and abnormal cell nuclei in transiently transfected COS-7 cells expressing Q74; format: cell-based, African green monkey; conditions: for cell death (apoptotic nuclear morphology) in Q74-expressing cells / proportions of Q74-expressing cells with aggregates / appearance (size, number) of Q74 aggregates in cells with aggregates: 48 hours after transfection; for cell death (apoptotic nuclear morphology) in Q74-expressing cells: drug for 15 hours before fixing, same concentrations; for cell death (apoptotic nuclear morphology) in Q74-expressing cells / proportions of Q74-expressing cells with aggregates: vs untreated; for proportions of Q74-expressing cells with aggregates: drug for 15 hours before fixing: 10 mM 3-MA, 0.5 mM DMA, 200 nM BafA1, 0.2 μg/ml rapamycin, 10 μM epoxomicin, 10 μM lactacystin; for appearance (size, number) of Q74 aggregates in cells with aggregates: immunofluorescence, drug 15 hours
Source text: (§1) Mammalian expression vectors comprising EGFP (pEGFP-C1, Clontech) fused at its C-terminus with a Huntington's Disease gene exon 1 fragment with 74 polyglutamine repeats (Q74) or a polyalanine stretch of 19 repeats (A19) were used (Rankin, J. et al (2000) Biochem. J., 348, 15-19; Narain, Y. et al (1999) J. Med. Genet., 36, 739-746.). A Haemagglutinin-tagged Huntington's Disease gene exon 1 fragment with 74 polyglutamine repeats in pHM6 vector (Q74-HA) was also used. The PC12 stable lines expressing exon 1 of Huntington gene were as described in Wyttenbach A. et al., (2001) Hum. Mol. Genet. 10 1829-45.
(§2) African green monkey kidney cells (COS-7) were grown in Dulbecco's Modified Eagle Medium (DMEM, Sigma) supplemented with 10% Fetal Bovine Serum (FBS), 100 U/ml Penicillin/Streptomycin, 2 mM L-Glutamine and 1 mM Sodium Pyruvate at 37° C., 5% Carbon dioxide. The cells were grown on coverslips in six-well plates for immunofluorescence analysis, or were directly grown in six-well plates to 60-80% confluency for 24 hours for western blot analysis. Transfection was done using LipofectAMINE reagent (Invitrogen) using the manufacturer's protocol. The transfection mixture was replaced by normal culture medium after 5 hours incubation at 37° C. and the transfected cells were analysed by immunofluorescence or immunoblot 48 hours after transfection. The cells were left untreated or treated with 10 mM 3-methyl adenine (3-MA, Sigma), 0.5 mM N^6, N^6, Dimethyl adenosine (DMA, Sigma), 0.2 μg/ml Rapamycin (Sigma), 200 nM Bafilomycin A1 (BafA1, Sigma), 10 μM Lactacystin (Sigma) or 10 μM epoxomicin (Affinity research products ltd.) for 15 hours before fixation for immunofluorescence or processing for western blots. DMA, BafA1, epoxomicin and rapamycin were dissolved in DMSO and 3-MA and lactacystin were in water. Equal amounts of water or DMSO were added to the untreated controls, where relevant. The cells on coverslips were rinsed with 1×PBS, fixed with 4% paraformaldehyde in 1×PBS for 20 min and mounted in antifadent supplemented with 4′,6-diamidino-2-phenylindole (DAPI, 3 μg/ml, Sigma) to allow visualisation of nuclear morphology. The PC12 stable cells were maintained at 75 μg/ml hygromycin in standard medium consisting of high glucose DMEM (Sigma) with 100 U/ml penicillin/streptomycin, 2 mM L-glutamine (Invitrogen), 10% heat-inactivated horse serum (Invitrogen), 5% Tet-approved fetal bovine serum (FBS) (Clontech) and 100 μg/ml G418 (Invitrogen) at 37° C., 10% CO2. The cells were seeded at 1-2×10^5 per well in 6-well plates and were induced with 1 μg/ml doxycycline (Sigma) for 8 hours. The expression of transgenes was switched off by removing doxycycline from the medium. Cells were either left untreated or treated with 3-MA, BafA1, epoxomicin, lactacystin, rapamycin, 10 μg/ml cycloheximide (Sigma) or cycloheximide+rapamycin at the concentrations specified above for 24, 48 or 72 hours and the medium with the inhibitors/activator changed every 24 hours. The cells were then scraped off from the wells into 1.5 ml eppendorf tubes, pelleted at 8000 rpm and washed twice with 1×PBS. They were either fixed with 4% paraformaldehyde for 20 minutes and mounted in DAPI over coverslips on glass slides or processed for western blot analysis. CCI-779 was supplied by Wyeth Pharmaceuticals (Philadelphia). For tissue culture experiments, a stock solution of 1M in ethanol was prepared the day of experiment and was diluted in the appropriate medium
(§3) The pellets for westerns from COS-7 or PC12 cells were lysed on ice in Laemmli buffer (62.5 mM Tris-HCl pH6.8, 5% β-mercaptoethanol, 10% glycerol, and 0.01% bromophenol blue) for 30 min in the presence of protease inhibitors (Roche Diagnostics). The lysates were subjected to SDS-PAGE (10%) electrophoresis and proteins transferred onto nitrocellulose membrane (Amersham Pharmacia Biotech). […]

[2] = system: COS-7 cells expressing EGFP fused to 19 alanines (A19); assay: Aggregate formation and abnormal cell nuclei in transiently transfected COS-7 cells expressing A19; format: cell-based, African green monkey; conditions: for cell death (abnormal nuclei) in A19-expressing cells / proportions of A19-expressing cells with aggregates / appearance (size, number) of A19 aggregates in cells with aggregates: 48 hours after transfection; for cell death (abnormal nuclei) in A19-expressing cells: drug for 15 hours before fixing, same concentrations; for cell death (abnormal nuclei) in A19-expressing cells / proportions of A19-expressing cells with aggregates: vs untreated; for proportions of A19-expressing cells with aggregates: drug for 15 hours before fixing: 10 mM 3-MA, 0.5 mM DMA, 200 nM BafA1, 0.2 μg/ml rapamycin, 10 μM epoxomicin; for appearance (size, number) of A19 aggregates in cells with aggregates: immunofluorescence, drug 15 hours
Source text: as §1, §2, §3

[3] = system: PC12 cell line expressing EGFP-tagged HD exon 1 with Q74; assay: Turnover of Q74 protein and aggregates in stable doxycycline-inducible PC12 cells after switching expression off; format: cell-based, rat; conditions: for numbers of aggregate containing cells / visible aggregates: vs time-matched control; for aggregate formation as high molecular weight fraction on the stack (western blot): 72 hours after switching off the expression, vs time-matched untreated controls
Experimental: as §2
The pellets for westerns from COS-7 or PC12 cells were lysed on ice in Laemmli buffer (62.5 mM Tris-HCl pH6.8, 5% β-mercaptoethanol, 10% glycerol, and 0.01% bromophenol blue) for 30 min in the presence of protease inhibitors (Roche Diagnostics). The lysates were subjected to SDS-PAGE (10%) electrophoresis and proteins transferred onto nitrocellulose membrane (Amersham Pharmacia Biotech). The primary antibodies used include mouse monoclonal anti-GFP antibody (8362-1, Clontech) at 1:2000, rabbit monoclonal anti-actin antibody (A2066, Sigma) at 1:3000, mouse monoclonal anti-tubulin antibody (Clone DM 1A, Sigma) at 1:1000 and mouse monoclonal anti-HA antibody (Covance) at 1:1000. Blots were probed with Horse Radish Peroxidase (HRP) conjugated anti-mouse or anti-rabbit IgG (Bio Rad) at 1:2000. Bands were visualised using the ECL detection reagent (Amersham). […]

Molecule | cell death (apoptotic nuclear morphology) in Q74-expressing cells [1] | proportions of Q74-expressing cells with aggregates [1] | appearance (size, number) of Q74 aggregates in cells with aggregates [1] | levels of an HA-tagged version of the HD exon 1 fragment with Q74 ([1]; western blot, 10 mM 3-MA) | levels of the transgene protein (EGFP-Q74) ([1]; western blot, 10 mM 3-MA) | cell death (abnormal nuclei) in A19-expressing cells [2] | proportions of A19-expressing cells with aggregates [2] | appearance (size, number) of A19 aggregates in cells with aggregates [2] | levels of the transgene protein (EGFP-A19) ([2]; western blot, 10 mM 3-MA) | numbers of aggregate containing cells / visible aggregates ([3]; 8 h ON then 72 h OFF with drug) | aggregate formation as high molecular weight fraction on the stack (western blot) [3] | cellular fluorescence ([3]; 8 h ON then 48 h OFF with 10 μM epoxomicin) | number of aggregate-containing cells ([3]; 8 h ON then 48 h OFF with 10 μM epoxomicin or 10 μM lactacystin, vs control) | heat shock protein 70 ([3]; epoxomicin treatment) | cell fluorescence (EGFP-Q74 clearance) ([3]; 8 h ON then 72 h OFF with drug, 0.2 μg/ml rapamycin, 10 μg/ml cycloheximide) | Q74 protein levels on a western blot ([3]; 8 h ON, then OFF with 0.2 μg/ml rapamycin, vs untreated control)
Cn1cnc(N)c2ncnc1-2 [3-MA, 3-methyl adenine] | increase | increased | increased their apparent size and number | increase | increase | increase | increased | increased their apparent size and number | increase | increased | increased aggregate formation | – | – | – | – | –
CO/C1=C\C(C)=C\[C@@H](C)[C@@H](O)[C@@H](C)C/C(C)=C/C=C/[C@H](OC)[C@@H]([C@@H](C)[C@@H](O)[C@H](C)[C@@]2(O)C[C@@H](O)[C@H](C)[C@@H](C(C)C)O2)OC1=O [BafA1, Bafilomycin A1] | increase | increased | increased size | – | – | increase | increased | increased size | – | increased | increased aggregate formation | – | – | – | – | –
CC[C@H](C)[C@H](NC(=O)[C@H]([C@@H](C)CC)N(C)C(C)=O)C(=O)N[C@H](C(=O)N[C@@H](CC(C)C)C(=O)[C@@]1(C)CO1)[C@@H](C)O [epoxomicin] | did not affect | did not affect | more aggregates in each aggregate-containing cell | – | – | – | increase | more aggregates in each aggregate-containing cell | – | – | – | obvious increase | reduction | marked increase | – | –
rapamycin | no significant change | no significant change | – | – | – | decrease | decrease | – | – | – | – | – | – | – | loss of fluorescence | decrease
